According to patent US5981558A, “DC107 derivatives” (Kyowa Hakko Kogyo Co., Ltd., priority 1996, dated 1999):

Tested on: HeLa S3 cells
Experiment: HeLa S3 Cell Growth Inhibition Test
Format: cell-based
Conditions: HeLa S3; 72 hours incubation; Neutral Red; read-out: IC50, HeLa S3 cell growth inhibition
Method: In each well of a 96-well microtiter plate was placed 0.1 mL of HeLa S3 cells having a concentration of 8×10^3 cells/mL and prepared in an MEM culture medium containing 10% fetal bovine serum and 2 mM glutamine. After the cells were incubated overnight at 37° C. in a carbon dioxide incubator, a test compound suitably diluted with a medium was added to the wells in an amount of 0.05 mL for each well. The cells were incubated at 37° C. for 72 hours in a carbon dioxide incubator. After the culture supernatant was removed, 0.1 mL of a culture medium containing 0.02% Neutral Red was added to each well. The cells were then incubated at 37° C. for 1 hour in a carbon dioxide incubator to dye the cells. After the culture supernatant was removed, each residue was rinsed once with physiological saline and the pigment was extracted with 0.001 N hydrochloric acid/30% ethanol. The absorbance at 550 nm of each extract was measured with a microplate reader. The drug concentration required for the 50% inhibition of cell growth, which is referred to as IC50, was calculated by comparing the absorbance for untreated cells with those for cells treated with the drug in known concentrations.

With COC(=O)[C@H](CCC(=O)OCSC(=O)C(C)(O)C12CC/C(C)=C/C(OC3CCCCO3)C(=O)/C=C/C=C\c3csc(n3)C(C)N(C(=O)C1)[S+]2[O-])NC(=O)[C@@]12O[C@@H](CO)[C@@H](O)[C@@H]1OC(C)(C)O2 (single isomer, unassigned) [Compound 66] as the compound, how does the IC50 read?
The IC50 was 0.048 µM.

Same assay, conditions: Homo sapiens, HeLa S3, 72 h, HeLa S3; 72 hours incubation; Neutral Red; read-out: IC50, HeLa S3 cell growth inhibition

Which IC50 does the source give for CC(=O)NCC(=O)OCc1oc(=O)oc1CSC(=O)C(C)(O)C12CC/C(C)=C/C(O)C(=O)/C=C/C=C\c3csc(n3)C(C)N(C(=O)C1)[S+]2[O-] (stereo not drawn) [Compound 97] here?
The IC50 was 0.12 µM.

For CC(=O)OCc1oc(=O)oc1CSC(=O)C(C)(O)C12CC/C(C)=C/C(OC3CCCCO3)C(=O)/C=C/C=C\c3csc(n3)C(C)N(C(=O)C1)[S+]2[O-] (stereo not drawn) [Compound 91], which IC50 is on record?
Its IC50 is 0.051 µM.

For CC1=C(CSC(=O)C(C)(O)C23CC/C(C)=C/C(O)C(=O)/C=C/C=C\c4csc(n4)C(C)N(C(=O)C2)[S+]3[O-])C(=O)OC2(CCOCC2)O1 (stereo not drawn) [Compound 124], which IC50 is on record?
Its IC50 is 0.96 µM.

How did the IC50 turn out when COCCOCCOCCOCC(=O)OCc1oc(=O)oc1CSC(=O)C(C)(O)C12CC/C(C)=C/C(OC3CCCCO3)C(=O)/C=C/C=C\c3csc(n3)C(C)N(C(=O)C1)[S+]2[O-] (stereo not drawn) [Compound 104] was run?
The IC50 was 0.02 µM.

For CC1=CC(O)C(=O)C=CC=Cc2csc(n2)C(C)N2C(=O)CC(C(C)(O)C(=O)SCOC(=O)CCNC(=O)[C@@]34O[C@H]5COC(C)(C)O[C@H]5[C@@H]3OC(C)(C)O4)(CC1)[S+]2[O-] (stereo partly drawn) [Compound 20], which IC50 is on record?
Its IC50 is 0.11 µM.

Which IC50 does the source give for COc1ccc(COCC(=O)OCSC(=O)C(C)(O)C23CCC(C)=CC(O)C(=O)C=CC=Cc4csc(n4)C(C)N(C(=O)C2)[S+]3[O-])cc1 (stereo not drawn) [Compound 13] here?
The IC50 was 0.011 µM.

Which IC50 does the source give for COC(=O)OCc1oc(=O)oc1CSC(=O)C(C)(O)C12CC/C(C)=C/C(OC3CCCCO3)C(=O)/C=C/C=C\c3csc(n3)C(C)N(C(=O)C1)[S+]2[O-] (stereo not drawn) [Compound 106] here?
The IC50 was 0.011 µM.

Same assay, conditions: Homo sapiens, HeLa S3, 72 h, read-out: IC50, HeLa S3 cell growth inhibition, HeLa S3; 72 hours incubation; Neutral Red

For C/C1=C\C(OC2CCCCO2)C(=O)/C=C/C=C\c2csc(n2)C(C)N2C(=O)CC(C(C)(O)C(=O)SCc3oc(=O)oc3COC(=O)CCC(=O)O)(CC1)[S+]2[O-] (stereo not drawn) [Compound 95], which IC50 is on record?
Its IC50 is 0.027 µM.

Which IC50 does the source give for COC(=O)CCCCC(=O)OCSC(=O)C(C)(O)C12CCC(C)=CC(O)C(=O)C=CC=Cc3csc(n3)C(C)N(C(=O)C1)[S+]2[O-] (stereo not drawn) [Compound 2] here?
The IC50 was 0.0075 µM.

For CC1=CC(O)C(=O)C=CC=Cc2csc(n2)C(C)N2C(=O)CC(C(C)(O)C(=O)SCOC(=O)CCCN3C(=O)C=CC3=O)(CC1)[S+]2[O-] (stereo not drawn) [Compound 28], which IC50 is on record?
Its IC50 is 0.75 µM.

With CC1=CC(O)C(=O)C=CC=Cc2csc(n2)C(C)N2C(=O)CC(C(C)(O)C(=O)SCOC(=O)CCNC(=O)[C@H]3O[C@@H]4OC(C)(C)O[C@@H]4[C@H]4OC(C)(C)O[C@H]43)(CC1)[S+]2[O-] (stereo partly drawn) [Compound 21] as the compound, how does the IC50 read?
The IC50 was 0.38 µM.

COCCOCCOCC(=O)OCOC1/C=C(\C)CCC2(C(C)(O)C(=O)SCOC(=O)COCCOCCOC)CC(=O)N(C(C)c3nc(cs3)/C=C\C=C\C1=O)[S+]2[O-] (stereo not drawn) [Compound 36] was tested. Which IC50 did it give?
Its IC50 is 0.02 µM.

COC(=O)Nc1cccc(C(=O)OCSC(=O)C(C)(O)C23CC/C(C)=C/C(OC4(OC)CCOCC4)C(=O)/C=C/C=C\c4csc(n4)C(C)N(C(=O)C2)[S+]3[O-])c1 (stereo not drawn) [Compound 58] was tested. Which IC50 did it give?
Its IC50 is 0.038 µM.

How did the IC50 turn out when C=C(CSC(=O)C(C)(O)C12CC/C(C)=C/C(O)C(=O)/C=C/C=C\c3csc(n3)C(C)N(C(=O)C1)[S+]2[O-])C(=O)OC (stereo not drawn) [Compound 111] was run?
Its IC50 is 0.02 µM.

For COC(=O)Nc1cccc(C(=O)OCSC(=O)C(C)(O)C23CC/C(C)=C/C(OC4CCCCO4)C(=O)/C=C/C=C\c4csc(n4)C(C)N(C(=O)C2)[S+]3[O-])c1 (stereo not drawn) [Compound 57], which IC50 is on record?
Its IC50 is 0.036 µM.

Same assay, conditions: Homo sapiens; HeLa S3; 72 hours incubation; Neutral Red; read-out: IC50, HeLa S3 cell growth inhibition

Which IC50 does the source give for C/C1=C\C(OC2CCCCO2)C(=O)/C=C/C=C\c2csc(n2)C(C)N2C(=O)CC(C(C)(O)C(=O)SCOC(=O)c3ccc(OP(=O)(O)O)cc3)(CC1)[S+]2[O-] (stereo not drawn) [Compound 72] here?
The IC50 was 0.65 µM.

Same assay, conditions: read-out: IC50, HeLa S3 cell growth inhibition; HeLa S3; 72 hours incubation; Neutral Red

For C/C1=C\C(OC2CCCCO2)C(=O)/C=C/C=C\c2csc(n2)C(C)N2C(=O)CC(C(C)(O)C(=O)SCOC(=O)CNC(=O)[C@@]34O[C@@H](CO)[C@@H](O)[C@@H]3OC(C)(C)O4)(CC1)[S+]2[O-] (single isomer, unassigned) [Compound 62], which IC50 is on record?
Its IC50 is 0.071 µM.
